From the supplement of paper PMC8149375
Several values for one entry are separate records, joined by “and”; a condition that tells them apart may be missing. Equal values may be shown once.

What was measured:
Conditions in all cases: treatment: drug + dasatinib (fixed dose, not stated); 5 days
[1] = system: 786-O; test: AUC of dose-response viability curve, drug + dasatinib, normalised to DMSO (arbitrary (AUC of normalised viability)); higher = less growth inhibition
Protocol: (§1)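 Primary HTS combination arm: 8 RCC cell lines treated with 8 doses (up to 10 uM) of each library drug plus a fixed dose of dasatinib (dose not stated) for 5 days; viability read by CellTiter-Glo and normalised to DMSO. GI50 was fitted with XLfit, AUC is the area under the dose-response curve, and minimum viability is the lowest fraction of DMSO viability across doses.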

[2] = system: TK-10; test: as above
Protocol: as §1

[3] = system: SN12C; test: as above
Protocol: as §1

[4] = system: A498; test: as above
Protocol: as §1

[5] = system: ACHN; test: as above
Protocol: as §1

[6] = system: 769-P; test: as above
Protocol: as §1

[7] = system: CAKI-1; test: as above
Protocol: as §1

[8] = system: UO-31; test: as above
Protocol: as §1

[9] = system: 786-O; test: minimum viability across doses, drug + dasatinib, relative to DMSO (fraction); higher = less growth inhibition
Protocol: as §1

[10] = system: TK-10; test: as above
Protocol: as §1

[11] = system: SN12C; test: as above
Protocol: as §1

[12] = system: A498; test: as above
Protocol: as §1

[13] = system: ACHN; test: as above
Protocol: as §1

[14] = system: 769-P; test: as above
Protocol: as §1

[15] = system: CAKI-1; test: as above
Protocol: as §1

[16] = system: UO-31; test: as above
Protocol: as §1

[17] = system: 786-O; test: GI50 of drug in presence of dasatinib; higher = less potent
Protocol: as §1

[18] = system: TK-10; test: as above
Protocol: as §1

[19] = system: SN12C; test: as above
Protocol: as §1

[20] = system: A498; test: as above
Protocol: as §1

[21] = system: ACHN; test: as above
Protocol: as §1

[22] = system: 769-P; test: as above
Protocol: as §1

[23] = system: CAKI-1; test: as above
Protocol: as §1

[24] = system: UO-31; test: as above
Protocol: as §1

| GI50 of drug [17] | GI50 of drug [21] | Compound | AUC of dose-response viability curve [1] | AUC of dose-response viability curve [2] | AUC of dose-response viability curve [3] | AUC of dose-response viability curve [4] | AUC of dose-response viability curve [5] | AUC of dose-response viability curve [6] | AUC of dose-response viability curve [7] | AUC of dose-response viability curve [8] | minimum viability across doses [9] | minimum viability across doses [10] | minimum viability across doses [11] | minimum viability across doses [12] | minimum viability across doses [13] | minimum viability across doses [14] | minimum viability across doses [15] | minimum viability across doses [16] | GI50 of drug [18] | GI50 of drug [19] | GI50 of drug [20] | GI50 of drug [22] | GI50 of drug [23] | GI50 of drug [24] |
| --- | --- | --- | --- | --- | --- | --- | --- | --- | --- | --- | --- | --- | --- | --- | --- | --- | --- | --- | --- | --- | --- | --- | --- | --- |
| > 10000 nM | > 10000 nM | O=C1NC(=O)C(=Cc2ccc(-c3ccc(F)cc3)o2)S1 (stereo in doubt) + Cc1nc(Nc2ncc(C(=O)Nc3c(C)cccc3Cl)s2)cc(N2CCN(CCO)CC2)n1 [dasatinib] | 2.24 | 2.37 | 2.4 | 3.83 | 2.28 | 2.42 | 2.46 | 3.43 | 0.519 | 0.633 | 0.655 | 0.903 | 0.607 | 0.594 | 0.638 | 0.657 | > 10000 nM | > 10000 nM | > 10000 nM | > 10000 nM | > 10000 nM | > 10000 nM |
| 1570 nM | 642 nM | CCOc1ccn(-c2ccc(F)cc2)c(=O)c1C(=O)Nc1ccc(Oc2ccnc(N)c2Cl)c(F)c1 + Cc1nc(Nc2ncc(C(=O)Nc3c(C)cccc3Cl)s2)cc(N2CCN(CCO)CC2)n1 [dasatinib] | 1.85 | 2.43 | 2.27 | 2.83 | 1.66 | 2.36 | 1.92 | 3.54 | 0.35 | 0.634 | 0.528 | 0.61 | 0.247 | 0.495 | 0.118 | 0.695 | > 10000 nM | > 10000 nM | > 10000 nM | > 10000 nM | – | > 10000 nM |
| > 10000 nM | > 10000 nM | N#Cc1c(O)c2c(-c3ccc(-c4ccccc4O)cc3)csc2[nH]c1=O + Cc1nc(Nc2ncc(C(=O)Nc3c(C)cccc3Cl)s2)cc(N2CCN(CCO)CC2)n1 [dasatinib] | 2.63 | 2.78 | 2.35 | 3.43 | 2.25 | 2.56 | 2.38 | 4.43 | 0.6 | 0.705 | 0.634 | 0.86 | 0.595 | 0.683 | 0.655 | 1.02 | > 10000 nM | > 10000 nM | > 10000 nM | > 10000 nM | > 10000 nM | > 10000 nM |
| 184 nM and 231 nM | 18.2 nM and 153 nM | CO[C@@H](C(=O)N1Cc2[nH]nc(NC(=O)c3ccc(N4CCN(C)CC4)cc3)c2C1)c1ccccc1 + Cc1nc(Nc2ncc(C(=O)Nc3c(C)cccc3Cl)s2)cc(N2CCN(CCO)CC2)n1 [dasatinib] | 1.57 and 1.49 | 2.19 and 2.06 | 1.95 and 1.86 | 2.44 and 2.82 | 1.37 and 1.42 | 2.12 and 2.33 | 1.46 | 2.67 and 3.57 | – | 0.146 and 0.131 | 0.159 and 0.145 | 0.36 and 0.384 | 0.0933 and 0.0842 | 0.346 and 0.337 | 0.0301 and 0.0221 | 0.0249 and 0.0141 | 1560 nM and 1030 nM | 491 nM and 366 nM | 1310 nM and 2720 nM | 2950 nM and 3100 nM | 170 nM and 198 nM | 3120 nM and 3920 nM |
| > 10000 nM | 96.4 nM | C[C@@H]1COC(Nc2ccc3ncnc(Nc4ccc(OCc5nccs5)c(Cl)c4)c3c2)=N1 + Cc1nc(Nc2ncc(C(=O)Nc3c(C)cccc3Cl)s2)cc(N2CCN(CCO)CC2)n1 [dasatinib] | 2.05 | 2.03 | 2.36 | 4.08 | 1.62 | 1.87 | 2.16 | 3.53 | 0.49 | 0.318 | 0.638 | 0.988 | 0.286 | 0.18 | 0.318 | 0.679 | 614 nM | > 10000 nM | > 10000 nM | 267 nM | 3550 nM | > 10000 nM |
| > 10000 nM | > 10000 nM | O=C1NC(=O)/C(=C/c2ccc3c(c2)OC(F)(F)O3)S1 + Cc1nc(Nc2ncc(C(=O)Nc3c(C)cccc3Cl)s2)cc(N2CCN(CCO)CC2)n1 [dasatinib] | 2.32 | 2.52 | 2.34 | 3.79 | 2.11 | 2.51 | 2.42 | 4.77 | 0.543 | 0.655 | 0.645 | 0.925 | 0.538 | 0.679 | 0.634 | 1.28 | > 10000 nM | > 10000 nM | > 10000 nM | > 10000 nM | > 10000 nM | > 10000 nM |
| 497 nM and 187 nM | 79.9 nM and 106 nM | Cc1cnc(Nc2ccc(N3CCN(C)CC3)cc2)nc1Nc1cccc(S(=O)(=O)NC(C)(C)C)c1 + Cc1nc(Nc2ncc(C(=O)Nc3c(C)cccc3Cl)s2)cc(N2CCN(CCO)CC2)n1 [dasatinib] | 1.88 and 1.72 | 1.73 and 1.65 | 1.85 and 1.91 | 3.36 and 2.9 | 1.25 and 1.24 | 1.99 and 2 | 1.56 and 1.46 | 3.14 and 3 | 0.0113 and 0.0115 | 0.00138 and 0.00232 | – | 0.176 and 0.14 | 0.00194 and 0.00321 | 0.0284 and 0.0197 | 0.00497 and 0.00392 | 0.0085 and 0.0129 | 336 nM and 309 nM | 746 nM and 690 nM | 4270 nM and 3210 nM | 878 nM and 719 nM | 271 nM and 152 nM | 903 nM and 821 nM |
